According to ChEMBL document CHEMBL4706707, “Discovery of novel HBV capsid assembly modulators by structure-based virtual screening and bioassays” (Bioorg Med Chem, 2021):

Experiments:
Hepatitis B virus [1] = assay: Antiviral activity against HBV infected in human HepG2.2.15 cells assessed as inhibition of viral growth measured by reduction in DNA level at 20 uM compound addition at every 3 days for 7 days by qPCR analysis relative to control; assay type: functional; conditions: HepG2.2.15, 168 h, time 7 day
Hepatitis B virus [2] = assay: Antiviral activity against HBV infected in human HepG2.2.15 cells assessed as inhibition of viral growth measured by reduction in DNA level compound addition at every 3 days for 7 days by qPCR analysis; assay type: functional, organism-based
[3] = Cytotoxicity against human HepG2.2.15 cells assessed as reduction in cell viability compound addition at every 3 days for 7 days by MTT assay; assay type: cell-based, HepG2 2.2.15; conditions: time 7 day
HEK293T = assay: Inhibition of HBV VFP-fused HBV-VN (N1 to 154 residue)/ VFP-fused HBV-VC (C155 to 239 residue) capsid protein assembly in 293T cells assessed as mean flouroscent intensity sat 50 uM by BIFC assay; assay type: cell-based; conditions: Hepatitis B virus

Which inhibition at 20 µM (Hepatitis B virus [1]) does the source give for `COc1cc(OC)c(C(=O)Nc2cccc(S(=O)(=O)N3CCCC3)c2)cc1OC` here?
The inhibition at 20 µM was 2.32%.

Which EC50 (Hepatitis B virus [2]) does the source give for `Cc1cccc(-c2cc(C(=O)NCc3ccccn3)c3ccccc3n2)c1` here?
Its EC50 is greater than 20 µM.

And the CC50 at 168 h [3]?
Its CC50 at 168 h is greater than 20 µM.

With `Cc1ccc(CN2C(=N)C(C(=O)NCc3cccnc3)=CC3C(=O)N4C=CC=CC4=NC32)cc1` (centres undefined) as the compound, how does the inhibition at 20 µM (Hepatitis B virus [1]) read?
The inhibition at 20 µM was 54.5%.

With `CCOC(=O)C1=C(CN2CCOCC2)NC(c2nccs2)=N[C@H]1c1ccc(F)cc1Br` as the compound, how does the Flu intensity (HEK293T) read?
The Flu intensity was 0.41.

Which EC50 (Hepatitis B virus [2]) does the source give for `Cc1ccc([C@H](C)NC(=O)c2cc(-c3cccc(C)c3)nc3ccccc23)cc1` here?
The EC50 was greater than 20 µM.

And the CC50 at 168 h [3]?
The CC50 at 168 h was greater than 20 µM.

With `O=C(Nc1cc(Cl)ccc1O)c1cccc(N2C(=O)c3ccccc3C2=O)c1` as the compound, how does the inhibition at 20 µM (Hepatitis B virus [1]) read?
Its inhibition at 20 µM is 8.12%.

For `Cc1ccc(-c2n[nH]c(SCC(=O)N3c4ccccc4Sc4ccccc43)n2)cc1`, which inhibition at 20 µM (Hepatitis B virus [1]) is on record?
Its inhibition at 20 µM is 48.7%.

With `O=C(c1cc(-c2cccc(Br)c2)nc2ccccc12)N1CCC(Cc2ccccc2)CC1` as the compound, how does the EC50 (Hepatitis B virus [2]) read?
Its EC50 is greater than 20 µM.

What about the CC50 at 168 h [3] of the same compound?
The CC50 at 168 h was greater than 20 µM.

For `O=C(NCc1ccc(Cl)cc1)c1cc(-c2ccccc2)nc2ccccc12`, which EC50 (Hepatitis B virus [2]) is on record?
Its EC50 is 15.7 µM.

What about the CC50 at 168 h [3] of the same compound?
The CC50 at 168 h was greater than 20 µM.

With `O=C(Nc1ccccc1N1CCN(C(=O)c2ccccc2)CC1)C(c1ccccc1)c1ccccc1` as the compound, how does the inhibition at 20 µM (Hepatitis B virus [1]) read?
The inhibition at 20 µM was 12.2%.

Which inhibition at 20 µM (Hepatitis B virus [1]) does the source give for `CS(=O)(=O)N1CCCc2cc(C(=O)Nc3ccccc3C(=O)NCc3ccccc3)ccc21` here?
The inhibition at 20 µM was 36.6%.

For `Cc1ccc(-c2cc(C(=O)N3CCC(Cc4ccccc4)CC3)c3ccccc3n2)cc1`, which EC50 (Hepatitis B virus [2]) is on record?
Its EC50 is 11.7 µM.

What about the CC50 at 168 h [3] of the same compound?
The CC50 at 168 h was greater than 20 µM.

With `CCCc1nc2ccccc2n1Cc1nc2ccccc2n1CCO` as the compound, how does the inhibition at 20 µM (Hepatitis B virus [1]) read?
The inhibition at 20 µM was 8.1%.

What does the source list for `O=C(c1cc(-c2ccsc2Cl)nc2ccccc12)N1CCN(Cc2ccccc2)CC1`?
EC50 (Hepatitis B virus [2]): 8.3 µM; CC50 at 168 h [3]: > 20 µM

For `O=C(c1cc(-c2ccsc2Cl)nc2ccccc12)N1CCC(Cc2ccccc2)CC1`, which EC50 (Hepatitis B virus [2]) is on record?
The EC50 was 6.7 µM.

And the CC50 at 168 h [3]?
Its CC50 at 168 h is greater than 20 µM.

For `O=C(CCCCC(=O)Nc1ccccc1C(=O)Nc1cccc(Cl)c1)Nc1ccccc1C(=O)Nc1cccc(Cl)c1`, which inhibition at 20 µM (Hepatitis B virus [1]) is on record?
Its inhibition at 20 µM is 30.1%.

With `CC(C)Cc1ccc(-c2cc(C(=O)N3CCC(Cc4ccccc4)CC3)c3ccccc3n2)cc1` as the compound, how does the EC50 (Hepatitis B virus [2]) read?
Its EC50 is greater than 20 µM.

What about the CC50 at 168 h [3] of the same compound?
The CC50 at 168 h was greater than 20 µM.

Which results are given for `CCOc1cccc(-c2cc(C(=O)NCc3nnc(C(C)(C)CC)s3)c3ccccc3n2)c1`?
EC50 (Hepatitis B virus [2]): > 20 µM; CC50 at 168 h [3]: > 20 µM

With `Cc1cccc(-c2cc(C(=O)N3CCC(Cc4ccccc4)CC3)c3ccccc3n2)c1` as the compound, how does the EC50 (Hepatitis B virus [2]) read?
Its EC50 is 1.8 µM.

And the CC50 at 168 h [3]?
Its CC50 at 168 h is greater than 20 µM.

What about the Flu intensity (HEK293T) of the same compound?
Its Flu intensity is 0.25.

With `CCN(C(=O)Cn1c([C@@H]2CC(=O)N(c3ccccc3C)C2)nc2ccccc21)c1ccccc1` as the compound, how does the inhibition at 20 µM (Hepatitis B virus [1]) read?
The inhibition at 20 µM was -8.36%.

Which inhibition at 20 µM (Hepatitis B virus [1]) does the source give for `Cn1c(=O)[nH]c(=O)c2c1nc(SCc1ccc(Cl)cc1)n2CCCc1ccccc1` here?
Its inhibition at 20 µM is 64.8%.

With `O=C(CN1C(=O)c2ccccc2C1=O)Nc1ccccc1C(=O)N(Cc1ccccc1)Cc1ccccc1` as the compound, how does the inhibition at 20 µM (Hepatitis B virus [1]) read?
The inhibition at 20 µM was 23.3%.

With `Cc1ccc(C(=O)COC(=O)c2ccccc2NC(=O)Cc2ccccc2)cc1` as the compound, how does the inhibition at 20 µM (Hepatitis B virus [1]) read?
Its inhibition at 20 µM is 45.9%.

With `Cc1ccc(-c2cc(C(=O)N3CCN(C/C=C/c4ccccc4)CC3)c3ccccc3n2)cc1C` as the compound, how does the EC50 (Hepatitis B virus [2]) read?
Its EC50 is 5.6 µM.

What about the inhibition at 20 µM (Hepatitis B virus [1]) of the same compound?
Its inhibition at 20 µM is 72.5%.

What about the CC50 at 168 h [3] of the same compound?
The CC50 at 168 h was greater than 20 µM.

With `CCOc1cccc(-c2cc(C(=O)N3CCC(Cc4ccccc4)CC3)c3ccccc3n2)c1` as the compound, how does the EC50 (Hepatitis B virus [2]) read?
Its EC50 is 9.8 µM.

What about the CC50 at 168 h [3] of the same compound?
Its CC50 at 168 h is greater than 20 µM.

For `N#CC1=C(N)N(c2nc[nH]n2)C2=C(C(=O)C[C@@H](c3ccccc3)C2)[C@H]1c1cccnc1`, which inhibition at 20 µM (Hepatitis B virus [1]) is on record?
The inhibition at 20 µM was 33%.

Which results are given for `Cc1ccc(-c2cc(C(=O)N3CCN(Cc4ccccc4)CC3)c3ccccc3n2)cc1`?
EC50 (Hepatitis B virus [2]): 14.5 µM; CC50 at 168 h [3]: > 20 µM

With `O=C(c1cc(-c2ccsc2Cl)nc2ccccc12)N1CCN(C/C=C/c2ccccc2)CC1` as the compound, how does the EC50 (Hepatitis B virus [2]) read?
The EC50 was 11.9 µM.

And the CC50 at 168 h [3]?
Its CC50 at 168 h is greater than 20 µM.

With `COc1ccccc1N1CCN(C(=O)c2cc(-c3ccc(C)c(C)c3)nc3ccccc23)CC1` as the compound, how does the EC50 (Hepatitis B virus [2]) read?
The EC50 was 15.3 µM.

And the CC50 at 168 h [3]?
Its CC50 at 168 h is greater than 20 µM.

Which inhibition at 20 µM (Hepatitis B virus [1]) does the source give for `O=C(Nc1ccccc1F)c1ccccc1C(=O)Nc1ccccc1F` here?
Its inhibition at 20 µM is 38.5%.

Which results are given for `O=C(c1cc(-c2ccccc2)nc2ccccc12)N1CCC(Cc2ccccc2)CC1`?
EC50 (Hepatitis B virus [2]): 8.7 µM; CC50 at 168 h [3]: > 20 µM

Which inhibition at 20 µM (Hepatitis B virus [1]) does the source give for `O=C(Nc1c(C(=O)N2CCCCCC2)cnn1-c1ccccc1)c1cccc(F)c1` here?
The inhibition at 20 µM was 13.5%.

Which results are given for `O=C(OCc1ccc(Cl)cc1)c1cc(-c2ccccc2)nc2ccccc12`?
EC50 (Hepatitis B virus [2]): > 20 µM; CC50 at 168 h [3]: > 20 µM

With `COc1ccc(-c2cc(C(=O)OCc3ccccc3)c3ccccc3n2)cc1` as the compound, how does the EC50 (Hepatitis B virus [2]) read?
The EC50 was greater than 20 µM.

What about the CC50 at 168 h [3] of the same compound?
The CC50 at 168 h was greater than 20 µM.
